Earlier results on one compound are cited in publication PMC9851200, “Multiparameter phenotypic screening for endogenous TFEB and TFE3 translocation identifies novel chemical series modulating lysosome function” (Autophagy, 2022).

Design in all cases: method as in original PKIS2 published data
For series [1], the target named is T1, kinases (KINOMEscan panel) (Homo sapiens, UniProt Q8IYT8).
T1 sequence (Q8IYT8 1-1036): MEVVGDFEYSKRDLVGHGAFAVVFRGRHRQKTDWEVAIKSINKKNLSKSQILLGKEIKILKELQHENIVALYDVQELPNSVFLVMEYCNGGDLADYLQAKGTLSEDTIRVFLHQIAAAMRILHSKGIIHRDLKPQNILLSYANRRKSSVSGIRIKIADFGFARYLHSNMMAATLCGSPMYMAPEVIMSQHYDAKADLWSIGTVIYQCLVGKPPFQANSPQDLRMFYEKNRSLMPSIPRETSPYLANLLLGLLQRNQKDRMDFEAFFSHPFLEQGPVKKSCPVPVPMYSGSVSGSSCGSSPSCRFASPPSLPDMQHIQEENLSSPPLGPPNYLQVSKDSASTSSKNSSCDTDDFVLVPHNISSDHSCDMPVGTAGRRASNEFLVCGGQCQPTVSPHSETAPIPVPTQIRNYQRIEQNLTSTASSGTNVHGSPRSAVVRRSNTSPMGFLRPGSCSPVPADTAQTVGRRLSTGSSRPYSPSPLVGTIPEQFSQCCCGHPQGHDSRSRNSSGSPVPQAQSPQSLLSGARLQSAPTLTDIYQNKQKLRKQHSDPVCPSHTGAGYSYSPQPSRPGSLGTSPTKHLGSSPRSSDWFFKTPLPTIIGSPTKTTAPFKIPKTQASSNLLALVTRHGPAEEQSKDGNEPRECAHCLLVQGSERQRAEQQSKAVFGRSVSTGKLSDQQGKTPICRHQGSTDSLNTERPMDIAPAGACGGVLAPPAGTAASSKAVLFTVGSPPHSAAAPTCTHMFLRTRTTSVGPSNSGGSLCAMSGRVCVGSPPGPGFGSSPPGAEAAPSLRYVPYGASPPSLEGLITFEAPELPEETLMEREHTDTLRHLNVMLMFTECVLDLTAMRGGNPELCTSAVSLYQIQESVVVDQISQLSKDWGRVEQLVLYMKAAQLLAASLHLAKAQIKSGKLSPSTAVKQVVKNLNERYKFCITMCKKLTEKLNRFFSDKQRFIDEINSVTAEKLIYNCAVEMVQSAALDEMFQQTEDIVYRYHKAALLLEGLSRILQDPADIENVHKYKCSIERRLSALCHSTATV
Conditions: Published KINOMEscan; ref original PKIS2 published data; cited from earlier work.

The target of series [2] is kinases (KINOMEscan panel) (Homo sapiens, UniProt Q9Y4K4). Conditions: kinase MAP4K5; Published KINOMEscan; ref original PKIS2 published data; cited from earlier work.
Series [3] addresses kinases (KINOMEscan panel) (Homo sapiens, UniProt Q9H0K1). Particulars: kinase SIK2; Published KINOMEscan; ref original PKIS2 published data; cited from earlier work.
The target in series [4] is kinases (KINOMEscan panel) (Homo sapiens, UniProt P29597). Conditions: Published KINOMEscan, ref original PKIS2 published data, cited from earlier work.
Series [5] addresses T2, kinases (KINOMEscan panel) (Homo sapiens, UniProt Q9C098).
T2 sequence (Q9C098 1-648): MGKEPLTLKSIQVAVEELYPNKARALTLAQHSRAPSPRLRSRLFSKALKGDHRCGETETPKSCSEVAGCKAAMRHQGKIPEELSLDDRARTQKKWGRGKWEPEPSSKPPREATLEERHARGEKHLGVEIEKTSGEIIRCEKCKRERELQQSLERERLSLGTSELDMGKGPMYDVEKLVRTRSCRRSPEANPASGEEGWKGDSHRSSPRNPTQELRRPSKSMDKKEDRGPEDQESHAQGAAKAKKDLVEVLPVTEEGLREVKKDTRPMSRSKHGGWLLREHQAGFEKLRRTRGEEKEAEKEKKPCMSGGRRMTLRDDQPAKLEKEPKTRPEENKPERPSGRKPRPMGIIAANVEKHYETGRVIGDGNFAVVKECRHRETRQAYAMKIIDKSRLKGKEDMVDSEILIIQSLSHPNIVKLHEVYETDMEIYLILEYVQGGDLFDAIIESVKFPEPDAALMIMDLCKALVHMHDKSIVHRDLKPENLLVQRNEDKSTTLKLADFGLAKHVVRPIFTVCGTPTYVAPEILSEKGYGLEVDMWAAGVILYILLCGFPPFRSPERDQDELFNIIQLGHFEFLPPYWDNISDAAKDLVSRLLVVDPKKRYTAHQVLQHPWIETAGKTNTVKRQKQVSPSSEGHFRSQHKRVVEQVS
Particulars: kinase DCLK3; Published KINOMEscan; ref original PKIS2 published data; cited from earlier work.

In series [6] the target is kinases (KINOMEscan panel) (Homo sapiens, UniProt P50750). Particulars: kinase CDK9; Published KINOMEscan; ref original PKIS2 published data; cited from earlier work.
For series [7], the target named is kinases (KINOMEscan panel) (Homo sapiens, UniProt P19525). Particulars: kinase ElF2AK2; Published KINOMEscan; ref original PKIS2 published data; cited from earlier work.
The target of series [8] is T3, kinases (KINOMEscan panel) (Homo sapiens, UniProt O14757).
T3 sequence (O14757 1-476): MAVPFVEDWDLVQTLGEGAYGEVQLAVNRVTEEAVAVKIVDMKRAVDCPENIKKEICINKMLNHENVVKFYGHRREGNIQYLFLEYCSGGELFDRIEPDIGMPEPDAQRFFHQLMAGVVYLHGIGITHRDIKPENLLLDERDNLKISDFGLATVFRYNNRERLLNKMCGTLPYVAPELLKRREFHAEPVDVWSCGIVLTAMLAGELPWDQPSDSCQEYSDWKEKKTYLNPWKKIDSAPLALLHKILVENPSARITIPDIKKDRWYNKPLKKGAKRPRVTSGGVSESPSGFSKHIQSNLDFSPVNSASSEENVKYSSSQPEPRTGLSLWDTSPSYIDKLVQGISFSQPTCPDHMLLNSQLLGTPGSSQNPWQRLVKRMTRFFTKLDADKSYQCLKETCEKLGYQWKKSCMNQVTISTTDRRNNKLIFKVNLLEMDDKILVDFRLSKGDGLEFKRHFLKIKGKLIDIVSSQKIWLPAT
Particulars: CHEK1; Published KINOMEscan; ref original PKIS2 published data; cited from earlier work.

Chain of kinases (KINOMEscan panel) (Homo sapiens, UniProt P29597) (P29597 whole entry): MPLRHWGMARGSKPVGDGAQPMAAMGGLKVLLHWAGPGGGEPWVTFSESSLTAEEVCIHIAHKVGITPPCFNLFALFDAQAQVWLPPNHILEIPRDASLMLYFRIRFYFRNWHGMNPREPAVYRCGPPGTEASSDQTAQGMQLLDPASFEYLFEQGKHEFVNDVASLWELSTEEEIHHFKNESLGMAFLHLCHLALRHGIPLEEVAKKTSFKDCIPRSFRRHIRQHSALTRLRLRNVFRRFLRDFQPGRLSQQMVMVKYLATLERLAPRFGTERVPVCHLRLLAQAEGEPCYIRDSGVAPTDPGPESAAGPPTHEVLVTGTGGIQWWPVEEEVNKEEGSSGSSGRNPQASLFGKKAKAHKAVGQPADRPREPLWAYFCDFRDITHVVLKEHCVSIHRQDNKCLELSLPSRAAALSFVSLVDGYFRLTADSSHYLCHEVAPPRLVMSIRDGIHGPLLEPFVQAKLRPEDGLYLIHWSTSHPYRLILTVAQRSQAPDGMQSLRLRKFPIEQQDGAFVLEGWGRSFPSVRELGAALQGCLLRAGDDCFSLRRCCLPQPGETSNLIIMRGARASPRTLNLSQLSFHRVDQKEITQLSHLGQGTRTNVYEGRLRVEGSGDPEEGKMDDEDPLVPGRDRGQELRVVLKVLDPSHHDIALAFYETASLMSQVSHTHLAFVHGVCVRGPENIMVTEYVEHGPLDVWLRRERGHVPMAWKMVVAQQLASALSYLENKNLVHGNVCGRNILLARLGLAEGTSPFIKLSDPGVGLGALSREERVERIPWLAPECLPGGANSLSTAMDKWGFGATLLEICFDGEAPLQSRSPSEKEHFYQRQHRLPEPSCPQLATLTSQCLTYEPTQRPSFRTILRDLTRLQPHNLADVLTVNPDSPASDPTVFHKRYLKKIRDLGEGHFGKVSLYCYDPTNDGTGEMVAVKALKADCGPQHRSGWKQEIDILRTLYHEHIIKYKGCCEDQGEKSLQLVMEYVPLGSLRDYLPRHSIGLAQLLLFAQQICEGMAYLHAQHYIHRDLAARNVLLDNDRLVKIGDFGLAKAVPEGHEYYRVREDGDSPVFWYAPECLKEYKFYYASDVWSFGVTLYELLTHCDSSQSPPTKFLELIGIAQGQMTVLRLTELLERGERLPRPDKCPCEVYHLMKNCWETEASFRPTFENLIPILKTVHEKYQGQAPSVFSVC
Chain of kinases (KINOMEscan panel) (Homo sapiens, UniProt Q9H0K1) (Q9H0K1 whole entry): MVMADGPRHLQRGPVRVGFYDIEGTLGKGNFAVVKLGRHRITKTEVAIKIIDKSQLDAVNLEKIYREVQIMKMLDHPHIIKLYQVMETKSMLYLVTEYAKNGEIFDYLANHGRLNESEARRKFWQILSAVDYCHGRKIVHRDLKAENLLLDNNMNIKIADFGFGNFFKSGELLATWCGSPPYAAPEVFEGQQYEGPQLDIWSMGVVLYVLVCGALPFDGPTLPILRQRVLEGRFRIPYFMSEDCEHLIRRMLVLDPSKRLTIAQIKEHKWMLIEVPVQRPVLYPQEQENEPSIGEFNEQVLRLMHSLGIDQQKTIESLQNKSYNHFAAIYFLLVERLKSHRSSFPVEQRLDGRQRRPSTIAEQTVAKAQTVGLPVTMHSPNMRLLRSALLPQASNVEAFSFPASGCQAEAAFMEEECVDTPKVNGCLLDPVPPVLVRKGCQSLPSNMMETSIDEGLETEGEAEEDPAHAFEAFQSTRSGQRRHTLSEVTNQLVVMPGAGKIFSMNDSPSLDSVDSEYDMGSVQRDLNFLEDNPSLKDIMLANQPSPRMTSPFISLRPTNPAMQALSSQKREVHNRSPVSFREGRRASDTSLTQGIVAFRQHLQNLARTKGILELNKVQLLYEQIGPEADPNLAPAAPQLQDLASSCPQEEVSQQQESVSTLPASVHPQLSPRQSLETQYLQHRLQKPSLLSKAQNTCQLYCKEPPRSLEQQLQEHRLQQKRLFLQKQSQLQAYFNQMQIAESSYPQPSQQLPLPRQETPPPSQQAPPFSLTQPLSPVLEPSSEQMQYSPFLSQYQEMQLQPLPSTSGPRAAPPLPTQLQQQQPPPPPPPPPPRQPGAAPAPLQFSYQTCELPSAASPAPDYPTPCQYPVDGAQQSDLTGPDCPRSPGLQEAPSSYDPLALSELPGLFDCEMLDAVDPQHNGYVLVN
Chain of kinases (KINOMEscan panel) (Homo sapiens, UniProt P19525) (P19525 whole entry): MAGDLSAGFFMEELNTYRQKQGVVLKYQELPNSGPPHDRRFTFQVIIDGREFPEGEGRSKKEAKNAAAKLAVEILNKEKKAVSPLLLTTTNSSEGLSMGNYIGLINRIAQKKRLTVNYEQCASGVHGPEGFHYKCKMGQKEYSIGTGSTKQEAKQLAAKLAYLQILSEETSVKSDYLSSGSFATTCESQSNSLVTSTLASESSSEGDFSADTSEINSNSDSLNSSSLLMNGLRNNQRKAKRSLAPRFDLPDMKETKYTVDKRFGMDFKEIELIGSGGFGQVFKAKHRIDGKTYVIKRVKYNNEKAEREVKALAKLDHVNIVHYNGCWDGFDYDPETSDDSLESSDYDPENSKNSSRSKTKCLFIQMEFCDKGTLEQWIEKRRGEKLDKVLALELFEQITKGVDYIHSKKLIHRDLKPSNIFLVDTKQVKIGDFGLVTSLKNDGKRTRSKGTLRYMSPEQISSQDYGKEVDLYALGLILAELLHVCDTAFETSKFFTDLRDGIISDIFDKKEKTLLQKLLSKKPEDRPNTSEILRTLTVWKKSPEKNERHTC
Chain of kinases (KINOMEscan panel) (Homo sapiens, UniProt P50750) (P50750 whole entry): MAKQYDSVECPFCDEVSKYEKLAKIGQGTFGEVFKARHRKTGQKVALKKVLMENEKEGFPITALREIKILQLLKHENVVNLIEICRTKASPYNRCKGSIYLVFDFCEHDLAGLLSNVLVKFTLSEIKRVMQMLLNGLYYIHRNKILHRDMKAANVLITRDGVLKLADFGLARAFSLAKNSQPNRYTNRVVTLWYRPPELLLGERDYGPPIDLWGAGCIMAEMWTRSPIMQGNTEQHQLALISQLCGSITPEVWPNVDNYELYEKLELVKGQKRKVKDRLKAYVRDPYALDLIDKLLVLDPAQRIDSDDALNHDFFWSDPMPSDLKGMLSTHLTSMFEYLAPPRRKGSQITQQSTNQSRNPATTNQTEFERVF
Chain of kinases (KINOMEscan panel) (Homo sapiens, UniProt Q9Y4K4) (Q9Y4K4 whole entry): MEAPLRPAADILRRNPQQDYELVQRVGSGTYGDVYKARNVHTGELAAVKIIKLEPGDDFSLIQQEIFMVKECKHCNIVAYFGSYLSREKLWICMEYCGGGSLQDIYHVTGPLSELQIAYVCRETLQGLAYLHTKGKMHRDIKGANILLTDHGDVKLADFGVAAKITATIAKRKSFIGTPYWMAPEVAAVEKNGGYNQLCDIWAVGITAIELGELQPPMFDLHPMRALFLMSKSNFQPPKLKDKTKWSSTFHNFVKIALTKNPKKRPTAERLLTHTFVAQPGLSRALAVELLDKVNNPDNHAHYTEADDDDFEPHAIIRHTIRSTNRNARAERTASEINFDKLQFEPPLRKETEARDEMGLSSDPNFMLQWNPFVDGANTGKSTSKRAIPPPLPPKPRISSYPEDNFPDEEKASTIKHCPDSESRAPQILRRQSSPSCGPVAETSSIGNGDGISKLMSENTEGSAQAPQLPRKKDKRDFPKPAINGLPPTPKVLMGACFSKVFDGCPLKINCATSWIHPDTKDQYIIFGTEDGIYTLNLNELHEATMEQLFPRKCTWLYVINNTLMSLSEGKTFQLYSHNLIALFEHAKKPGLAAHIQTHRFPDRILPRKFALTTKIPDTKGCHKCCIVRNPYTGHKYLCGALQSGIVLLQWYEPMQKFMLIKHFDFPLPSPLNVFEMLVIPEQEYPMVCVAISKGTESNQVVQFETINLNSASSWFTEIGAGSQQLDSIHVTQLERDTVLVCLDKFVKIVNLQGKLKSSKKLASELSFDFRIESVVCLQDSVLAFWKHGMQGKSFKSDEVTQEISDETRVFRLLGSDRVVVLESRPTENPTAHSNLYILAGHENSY

With `Cc1cccc(-c2nc(Nc3ccncc3)c3ccccc3n2)n1` [NK215], in series [1], the “KINOMEscan ULK2” value was 0. Moreover, in series [2], the “KINOMEscan MAP4K5” value was 0. The “KINOMEscan SIK2” value in series [3] is 0. In series [4] (TYK2(JH2domain-pseudokinase)), the “KINOMEscan TYK2(JH2domain-pseudokinase)” value was 40. The “KINOMEscan TYK2(JH1domain-catalytic)” value in series [4] (kinase TYK2(JH1domain-catalytic)) is on record as 8. The “KINOMEscan DCLK3” value in series [5] was 21. In series [6], the “KINOMEscan CDK9” value was 0. The “KINOMEscan ElF2AK2” value in series [7] is listed as 2. Also, the “KINOMEscan CHEK1” value in series [8] is reported as 0.
